According to patent publication US20030165919A1, “Method for the analysis of exogenic and endogenic cell activiation based on measuring the aggregation of receptors” (priority 2000, published 2003):

Molecular target: T1, CD11b and CD14 (Homo sapiens, UniProt P08571)
T1 construct: endogenous in cells; host or cells: human monocytes in heparinised whole blood (healthy donors and patients)
T1 sequence (P08571 20-345 limits assumed): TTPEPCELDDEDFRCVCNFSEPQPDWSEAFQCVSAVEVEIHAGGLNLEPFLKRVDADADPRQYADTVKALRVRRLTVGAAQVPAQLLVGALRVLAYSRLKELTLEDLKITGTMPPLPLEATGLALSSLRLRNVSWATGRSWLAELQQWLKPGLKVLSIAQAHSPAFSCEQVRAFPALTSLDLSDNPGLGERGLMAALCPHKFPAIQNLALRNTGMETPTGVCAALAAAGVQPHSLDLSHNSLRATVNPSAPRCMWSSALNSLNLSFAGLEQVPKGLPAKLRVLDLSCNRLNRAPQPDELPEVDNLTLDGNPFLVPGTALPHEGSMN
Assay: FRET flow cytometry: co-assembly of CD11b and CD14 on monocytes
Format: cell-based
Conditions: human monocytes in whole blood, stimulation with the substance alone, 37° C. 15 minutes
Procedure: Aliquots […] of whole blood were incubated with the following stimulatory compounds at 37° C. for 15 minutes: LPS of Salmonella minnesota (0.1-10 nM, Mw 10 kDa), ceramide (primarily stearic acid and nervonic acid) and sulfogalactosyl ceramide (SG-cer, […]), both of which tested LPS free in the LAL assay (Cer, 1 nM-5.5 mM), lysophosphatidyl choline (lyso-PC, 10 mM), phorbol-12-myristate-13-acetate (PMA, 1 mM), N-formyl-L-methionyl-L-leucyl-L-phenyl alamine (fMLP, 1 mM), PE, PC, PI and PS liposomes (10 mm) which had been prepared as described above. All reagents were obtained from Sigma. In addition, the cells were stimulated with HPS70 (7 nM), dHSP70 (7 nM) and SG-cer+dHSP70 (40 nM+7 nM). After incubation, the cells were washed with cold PBS containing 0.1% of NaN3. The synthetic LPS antagonist lipid IVa (“compound-406”, 1-400 ng/ml) and lipid A derived from E. coli (1-100 ng/ml) were made available by courtesy of Dr. S. Kusumoto. The cells were pre-incubated with the LPS antagonist at 37° C. for 15 minutes and then stimulated with LPS at the same temperature (without washing).
Whole blood cells which had been stimulated or washed ex vivo […] were incubated on ice for 15 minutes with saturation concentrations of monoclonal fluorochrom-conjugated or biotinylated antibodies. The monoclonal antibodies CD11a (clone 25.3.1), CD16a (clone 3G8). CD18 (clone 7E4), CD14 (clone RMO52), CD33 (clone My9-RD1). CD81 (clone Js64) were obtained as R-phyco-erythrine (R-PE) conjugates and CD25 (clone B1.49.9) in biotinylated form from Coulter/Immunotech (Krefeld, Germany). CD11b (clone d12), CD11c (clone S-HCL-3), CD36 (clone CB38), CD47 (clone B6H12), CD81 (clone JS-81) and (Cd55 (clone IA10) in biotinylated form and Streptavidin-R-PE were purchased from Becton/Dickinson/Pharningen (Heidelberg, Germany) CD18 (clone IB4) in biontinylated form and CD40 (clone EA-5) as R-PE conjugate were obtained from Alexis (Grünberg, Germany) and CD14 (clones ×8 and Uchml) and CD3 (clone Cris-7) in biotinylated form and Streptavidin-Cy5 (Sa-Cy5) from Dianova (Hamburg, Germany), CD32 (clone C1KM5) and CD64 (clone 10.1) were obtained as R-PE conjugates from Caltag (Burlingame, U.S.A.) and CD91 (clone 8G1) in biotinylated form from Proen (Heidelberg, Germany). A monoclonal anti-TLRA antibody (clone HTA125) was kindly provided by Dr. Kensuke. Since no energy transfer between the antibodies directed against the CD14/CD11a and CD14/CD11c pairs was detectable either on resting or on stimulated cells, these antibody combinations were not characterised further.
Lysis of erythrocytes and washing were carried out as described (Rothe et al., Thromb. Vasc. Biol. 16 (1996), 1437-1447). After the last washing step, the samples were divided and part of each sample incubated with a saturating amount of SA-Cy5 on ice for 15 minutes and washed before measuring.
For energy transfer experiments, […] aliquots of whole blood were treated with cholesterol/methyl cyclodextrine (C/C) (100 mg/ml/4.6 mg/ml) or 2-hydroxypropyl-β-cyclodextrine (0.15 mg/ml) at 37° C. for 30 minutes and then stimulated further with LPS (4 nM) or ceramide (40 nM) as described above. The energy transfer between CD14 and CD11b was measured.
A “FACSCalibur” flow cytometer (Becton Dickinson) equipped with an air-cooled 15 mW argon laser (excitation wavelength 488 nm), a diode laser (excitation wavelength […]) and standard filters [channel 1 (FITC): 530/30 nm band pass filter; channel 2 (R-PE being used as donor dye); 585/47 nm band pass filter; channel 3 (PerCP): pass having a length of >670 nm; and channel 4 (Cy5being used as recipient dye): 661/16 nm bad pass filter] was used. The Cellquest software (Becton Dickinson) was used for the measurements. […] Measurement was conducted without compensation. 50,000 leukocytes were required in the “list” modus, forward scattering (FSC) being used as a trigger signal. […]

Row | Substance | co-assembly of CD11b and CD14 (energy transfer between monoclonal antibodies)
1 | lipid A | induced the co-assembly of CD11b and CD14
2 | lyso-phosphatidyl choline [lysoPC] | Only lipoteichoic acid, PE and PI induced co-assembly
3 | phosphatidyl choline [PC] | Only lipoteichoic acid, PE and PI induced co-assembly
4 | phosphatidyl ethanol amine [PE] | induced co-assembly between CD11b and CD14
5 | phosphatidyl inositol [PI] | induced co-assembly between CD11b and CD14
6 | phosphatidyl serine [PS] | Only lipoteichoic acid, PE and PI induced co-assembly
7 | sulfogalactosyl ceramide [SG-cer] | Only lipoteichoic acid, PE and PI induced co-assembly
